# Experimental data taken from patent US20250221960A1, “COMPOSITIONS AND METHODS FOR THE TREATMENT OF DEPRESSION” (Janssen Pharmaceuticals, Inc., priority 2022, published 2025).
# Tests used:
# subjects with MDD [1] = experiment: Biomarker signature subtyping of MADRS treatment outcome (Example 4); assay type: in vivo, human
# Description: Serum or plasma was prepared from the samples of venous blood. Measurements of human CRP and IL-6-R were performed in serum using an MSD Sector 6000 with the kits #K151STD and K151ALC (MesoScale Discovery, Rockville, MD). Human TNFα was quantified in serum using a Simoa HD-1 analyzer with kit #143 (Quanterix, Lexington, MA). Human Dynorphin was assayed in plasma using a SpectraMax M plate reader (Molecular devices, San Jose, CA) with kit #CSB-E09128h (Cusabio, Wuhan, China). All measures were performed according to kit manufacturer's recommendations.
# As used in the following biomarker assay analysis, treatment (TRT) refers to treatment with an SSRI/SNRI plus Aticaprant and placebo (PBO) refers to treatment with an SSRI/SNRI plus placebo.
# Treatment Outcome: Change in clinical scale at the of end of the double period. Negative values indicate improvement in depression levels relative to baseline levels. The more negative the change, the greater the improvement.
# Sig^Pos: Patient meeting the criteria defined by signature of biomarkers and/or clinical scales.
# 3 MM: Inflammatory biomarker signature with positive status defined by CRP>3 mg/L and (TNFα>4 pg/mL or sIL6R>25 ng/ml).
# 4 MM: Inflammatory biomarker signature with positive status defined by high dynorphin (δ1) or 3 MM with moderate dynorphin (δ2) subtypes, specifically: DYN>δ1 pg/mL or (DYN>δ2 pg/mL and CRP>3 mg/L and (TNFα>4 pg/ml or sIL6R>25 ng/ml)). In certain embodiments, the 4 MM DYN cutoffs are as follows: Dyn>50 OR (3 MM and Dyn>8); Dyn>24 OR (3 MM and Dyn>8), or Dyn>11.4 and 3 MM.
# TE Sig^Pos: Treatment Effect in Signature Positive group: (Average mean MADRS change in placebo-Average mean MADRS change in treatment) in Sig^Pos group.
# TE Sig^Neg: Treatment Effect in Signature Negative group.
# Sig Adv: Signature Advantage (interaction) Difference in TE between signature groups: Sig Adv=TE Sig^Pos−TE Sig^Neg.
# The effect of biomarker signatures on patient response to treatment is summarized in graphical form using two panel box plots in FIG. 25. […] Red color represents placebo and teal represents aticaprant. Rectangular boxes span Diamonds and error bars represent mean and 95% Confidence Interval (CI) of treatment outcome by treatment arm and biomarker signature status. In the signature positive group, the treatment effect (difference in average treatment outcome between treatment arms) was of 6.29 MADRS points (One sided p=0.07, effect size=0.75). While in the signature negative groups, the treatment effect was 1.59 MADRS points. In other words, subjects who are biomarker signature positive improve by an additional 4.7 points […] relative to placebo when treated with aticaprant, compared to subjects who are biomarker signature negative. This signature advantage of 4.7 MADRS points represents the interaction of biomarker signature status with treatment effect. Treatment effects, signature advantage, and corresponding p values are assessed using a linear regression model for treatment outcome with independent variables for treatment, biomarker signature status, and their interaction. All p-values are one sided. Significant is defined as nominal one sided p value <0.05.
# subjects with MDD [2] = experiment: MADRS total score, adjunctive aticaprant vs placebo (Example 1); conditions: for MADRS Total Score Change from Baseline LSMean (SE), MMRM / MADRS Total Score LSMean Difference (SE) Treatment - Placebo, MMRM / MADRS Total Score Effect Size vs placebo / MADRS Total Score Mean Change from Baseline (SD): 10 mg
# [3] = High anhedonia, Treatment Week 1, fITT
# [4] = High anhedonia, Treatment Week 3, fITT
# [5] = High anhedonia, Treatment Week 4, fITT
# [6] = High anhedonia, Treatment Week 5, fITT
# [7] = High anhedonia, Treatment Week 6, fITT
# [8] = Low anhedonia, Treatment Week 1, fITT
# [9] = Low anhedonia, Treatment Week 3, fITT
# [10] = Low anhedonia, Treatment Week 4, fITT
# [11] = Low anhedonia, Treatment Week 5, fITT
# [12] = Low anhedonia, Treatment Week 6, fITT
compound,measurement,setting,value
"Cc1cc(C)cc(C2CCCN2Cc2ccc(Oc3ccc(C(N)=O)cc3F)cc2)c1 (stereo not drawn) [aticaprant, 3-fluoro-4-4-2-(3,5-dimethylphenyl) pyrrolidin-1-yl-methylphenoxybenzamide]",treatment effect in biomarker signature positive patients,subjects with MDD [1]; 3 MM and DYN>δ signature (δ=11.5),very large treatment effect
same,average aticaprant response in biomarker signature negative patients,subjects with MDD [1]; 3 MM or DYN signature negative,worse than that of placebo
same,signature advantage,"subjects with MDD [1]; 3 MM or high DYN signature, in more than 60% of patients",3-8 point
same,signature advantage (TE SigPos - TE SigNeg),subjects with MDD [1]; 3 MM signature,4.7 MADRS points
same,effect size in signature positive group,subjects with MDD [1]; 3 MM signature positive,0.75
same,treatment effect in signature positive group (placebo - treatment MADRS change),"subjects with MDD [1]; 3 MM signature positive (21% of MDD), end of double-blind",6.3 MADRS points
same,improvement compared to biomarker signature negative counterpart,subjects with MDD [1]; 4 MM signature (63% of MDD),6 points
same,MADRS points difference at end DB relative to placebo,subjects with MDD [1]; 4 MM signature positive (63% of MDD),4.6 MADRS points
same,treatment effects of 4 MM signatures,"subjects with MDD [1]; DYN>δ1 or (3 MM and DYN>δ2), range of δ1",≥ 4.5 MADRS points
same,signature advantage of 4 MM signatures,subjects with MDD [1]; in 38-63% of patients,> 5 point
same,MADRS Total Score: Mean Change from Baseline (SD),"subjects with MDD [2]; High anhedonia (SHAPS >=38 at treatment baseline), Treatment Week 1, fITT",−4.4 (5.04)
same,MADRS Total Score: Effect size,subjects with MDD [2]; [3],−0.45
same,MADRS Total Score: Mean Change to Placebo (SD pooled),subjects with MDD [2]; [3],−2.0 (4.38)
same,MADRS Total Score: Effect size,subjects with MDD [2]; [4],−0.54
same,MADRS Total Score: Mean Change from Baseline (SD),subjects with MDD [2]; [4],−6.9 (6.66)
same,MADRS Total Score: Mean Change to Placebo (SD pooled),subjects with MDD [2]; [4],−3.8 (6.94)
same,MADRS Total Score: Effect size,subjects with MDD [2]; [5],−0.50
same,MADRS Total Score: Mean Change from Baseline (SD),subjects with MDD [2]; [5],−8.6 (7.32)
same,MADRS Total Score: Mean Change to Placebo (SD pooled),subjects with MDD [2]; [5],−3.8 (7.56)
same,MADRS Total Score: Effect size,subjects with MDD [2]; [6],−0.51
same,MADRS Total Score: Mean Change from Baseline (SD),subjects with MDD [2]; [6],−10.2 (8.04)
same,MADRS Total Score: Mean Change to Placebo (SD pooled),subjects with MDD [2]; [6],−4.0 (7.87)
same,MADRS Total Score: Effect size,subjects with MDD [2]; [7],−0.51
same,MADRS Total Score: Mean Change from Baseline (SD),subjects with MDD [2]; [7],−11.3 (8.69)
same,MADRS Total Score: Mean Change to Placebo (SD pooled),subjects with MDD [2]; [7],−4.6 (9.03)
same,MADRS Total Score: Mean Change from Baseline (SD),"subjects with MDD [2]; Low anhedonia (SHAPS >=20 and <38 at treatment baseline), Treatment Week 1, fITT",−2.4 (4.59)
same,MADRS Total Score: Effect size,subjects with MDD [2]; [8],−0.24
same,MADRS Total Score: Mean Change to Placebo (SD pooled),subjects with MDD [2]; [8],−1.0 (4.39)
same,MADRS Total Score: Effect size,subjects with MDD [2]; [9],−0.08
same,MADRS Total Score: Mean Change from Baseline (SD),subjects with MDD [2]; [9],−4.1 (6.67)
same,MADRS Total Score: Mean Change to Placebo (SD pooled),subjects with MDD [2]; [9],−0.5 (6.37)
same,MADRS Total Score: Effect size,subjects with MDD [2]; [10],−0.23
same,MADRS Total Score: Mean Change from Baseline (SD),subjects with MDD [2]; [10],−6.4 (6.77)
same,MADRS Total Score: Mean Change to Placebo (SD pooled),subjects with MDD [2]; [10],−1.5 (6.65)
same,MADRS Total Score: Effect size,subjects with MDD [2]; [11],−0.10
same,MADRS Total Score: Mean Change from Baseline (SD),subjects with MDD [2]; [11],−7.3 (6.90)
same,MADRS Total Score: Mean Change to Placebo (SD pooled),subjects with MDD [2]; [11],−0.7 (6.86)
same,MADRS Total Score: Effect size,subjects with MDD [2]; [12],−0.29
same,MADRS Total Score: Mean Change from Baseline (SD),subjects with MDD [2]; [12],−8.8 (7.48)
same,MADRS Total Score: Mean Change to Placebo (SD pooled),subjects with MDD [2]; [12],−2.3 (7.80)
same,"Change from Treatment Baseline in MADRS Total Score, Least Squares Mean Difference point estimate","subjects with MDD [2]; Treatment Week 6, both responders and non-responders during placebo lead-in, 10 mg vs placebo",−3.1 score on a scale
same,"MADRS LSMeans difference estimate, supplementary MMRM analysis (data prior to 15 Mar. 2020, COVID-19)",subjects with MDD [2]; eITT,−3.0
same,MADRS Total Score Mean Change to Placebo,"subjects with MDD [2]; eITT, High anhedonia (baseline SHAPS >=38), Treatment Week 1",−1.8
same,MADRS Total Score Mean Change to Placebo,"subjects with MDD [2]; eITT, High anhedonia (baseline SHAPS >=38), Treatment Week 3",−3.0
same,MADRS Total Score Mean Change to Placebo,"subjects with MDD [2]; eITT, High anhedonia (baseline SHAPS >=38), Treatment Week 4",−2.2
same,MADRS Total Score Mean Change to Placebo,"subjects with MDD [2]; eITT, High anhedonia (baseline SHAPS >=38), Treatment Week 5",−2.6
same,MADRS Total Score Mean Change to Placebo,"subjects with MDD [2]; eITT, High anhedonia (baseline SHAPS >=38), Treatment Week 6",−3.4
same,MADRS Total Score Mean Change to Placebo,"subjects with MDD [2]; eITT, Low anhedonia (baseline SHAPS >=20 and <38), Treatment Week 1",−0.5
same,MADRS Total Score Mean Change to Placebo,"subjects with MDD [2]; eITT, Low anhedonia (baseline SHAPS >=20 and <38), Treatment Week 3",−0.1
same,MADRS Total Score Mean Change to Placebo,"subjects with MDD [2]; eITT, Low anhedonia (baseline SHAPS >=20 and <38), Treatment Week 4",0.0
same,MADRS Total Score Mean Change to Placebo,"subjects with MDD [2]; eITT, Low anhedonia (baseline SHAPS >=20 and <38), Treatment Week 5",0.3
same,MADRS Total Score Mean Change to Placebo,"subjects with MDD [2]; eITT, Low anhedonia (baseline SHAPS >=20 and <38), Treatment Week 6",−0.9
same,"MADRS Total Score Change from Baseline LSMean (SE), MMRM","subjects with MDD [2]; eITT, Treatment Week 1",3.2
same,"MADRS Total Score LSMean Difference (SE) Treatment - Placebo, MMRM","subjects with MDD [2]; eITT, Treatment Week 1",−1.2
same,MADRS Total Score Effect Size vs placebo,"subjects with MDD [2]; eITT, Treatment Week 3",−0.22
same,"MADRS Total Score LSMean Difference (SE) Treatment - Placebo, MMRM","subjects with MDD [2]; eITT, Treatment Week 3",−1.5
same,MADRS Total Score Effect Size vs placebo,"subjects with MDD [2]; eITT, Treatment Week 4",−0.14
same,"MADRS Total Score LSMean Difference (SE) Treatment - Placebo, MMRM","subjects with MDD [2]; eITT, Treatment Week 4",−1.1
same,MADRS Total Score Effect Size vs placebo,"subjects with MDD [2]; eITT, Treatment Week 5",−0.14
same,"MADRS Total Score LSMean Difference (SE) Treatment - Placebo, MMRM","subjects with MDD [2]; eITT, Treatment Week 5",−1.5
same,percentage of subjects with MADRS remission (MADRS total score≤10),"subjects with MDD [2]; eITT, Treatment Week 6",16.9%
same,"MADRS Total Score LSMean Difference (SE) Treatment - Placebo, MMRM","subjects with MDD [2]; eITT, Treatment Week 6",−2.1
same,"MADRS LSMeans difference estimate, supplementary MMRM analysis (data prior to 15 Mar. 2020, COVID-19)",subjects with MDD [2]; fITT,−3.4
same,onset of significant treatment effect (MADRS LS mean change from baseline),"subjects with MDD [2]; fITT, FIG. 7B",3 week
same,"MADRS Total Score LSMean Difference (SE) Treatment - Placebo, MMRM","subjects with MDD [2]; fITT, Treatment Week 1",−1.6
same,MADRS Total Score Mean Change from Baseline (SD),"subjects with MDD [2]; fITT, Treatment Week 1",−3.1
same,"MADRS Total Score Change from Baseline LSMean (SE), MMRM","subjects with MDD [2]; fITT, Treatment Week 3",−5.2
same,MADRS Total Score Effect Size vs placebo,"subjects with MDD [2]; fITT, Treatment Week 3",−0.26
same,"MADRS Total Score LSMean Difference (SE) Treatment - Placebo, MMRM","subjects with MDD [2]; fITT, Treatment Week 3",−1.9
same,MADRS Total Score Mean Change from Baseline (SD),"subjects with MDD [2]; fITT, Treatment Week 3",−5.1
same,MADRS Total Score Effect Size vs placebo,"subjects with MDD [2]; fITT, Treatment Week 4",−0.32
same,"MADRS Total Score LSMean Difference (SE) Treatment - Placebo, MMRM","subjects with MDD [2]; fITT, Treatment Week 4",−2.5
same,MADRS Total Score Mean Change from Baseline (SD),"subjects with MDD [2]; fITT, Treatment Week 4",−7.2
same,MADRS Total Score Effect Size vs placebo,"subjects with MDD [2]; fITT, Treatment Week 5",−0.26
same,"MADRS Total Score LSMean Difference (SE) Treatment - Placebo, MMRM","subjects with MDD [2]; fITT, Treatment Week 5",−2.4
same,MADRS Total Score Mean Change from Baseline (SD),"subjects with MDD [2]; fITT, Treatment Week 5",−8.3
same,percentage of subjects with MADRS remission (MADRS total score≤10),"subjects with MDD [2]; fITT, Treatment Week 6",31.2%
same,"MADRS Total Score Change from Baseline LSMean (SE), MMRM","subjects with MDD [2]; fITT, Treatment Week 6",−9.6
same,"MADRS Total Score LSMean Difference (SE) Treatment - Placebo, MMRM","subjects with MDD [2]; fITT, Treatment Week 6",−3.1
same,MADRS total score difference between aticaprant and placebo,"subjects with MDD [2]; fITT, low anhedonia level (n=94), Treatment Week 6",−2.3
same,LSMD (MADRS) in high anhedonia group relative to low anhedonia group,subjects with MDD [2]; week 6,more than double
